Experimental data as given in patent US20220282217A1, “COMPOSITIONS AND METHODS FOR PREPARING T CELL COMPOSITIONS AND USES THEREOF” (priority 2019, published 2022).
Where a SMILES comes first, the peptide text is derived from it.

biological target: HLA-A02.01 (Homo sapiens, UniProt P04439, D140Y/D185E/D98H/E176V/E277Q/G131W/G231S/I119V/I121R/I166T/I218V/L300P/L318F/N151K/N90K/P208A/P217A/Q86G/Q94H/R138H/R169H/T345S); assay: Class I MHC peptide binding affinity (displacement of radiolabeled reference peptide); settings: allele A02.01; read-out: Observed Affinity (IC50; (nM))
Summary of the method: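 MHC class I complexes were loaded with a radiolabeled reference peptide, then exposed to test peptides over a range of concentrations for 2 days. Reference peptide still bound to the complexes was quantified by size-exclusion gel filtration.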

IC50 [nM] | SMILES
226 | CC[C@H](C)[C@H](NC(=O)[C@H](Cc1ccccc1)NC(=O)[C@H](CS)NC(=O)[C@H](CO)NC(=O)[C@H](CC(N)=O)NC(=O)[C@H](CO)NC(=O)[C@H](C)NC(=O)[C@H](CO)NC(=O)[C@H](CC(C)C)NC(=O)[C@H](C)N)C(=O)O (H-ALSASNSCFI-OH; N-terminus and C-terminus assumed)

biological target: T1, HLA-A02.01 (Homo sapiens, UniProt P04439, D140Y/D185E/D98H/E176V/E277Q/G131W/G231S/I119V/I121R/I166T/I218V/N151K/N90K/P208A/P217A/Q86G/Q94H/R138H/R169H); assay: Class I MHC peptide binding stability (pMHC-I dissociation, 125I-labeled light chain); settings: allele A02.01
T1 construct: made in house; host or cells: E. coli

Stability (T1/2 (h)) [h] | SMILES
0.8 | CC[C@H](C)[C@H](NC(=O)[C@H](Cc1ccccc1)NC(=O)[C@H](CS)NC(=O)[C@H](CO)NC(=O)[C@H](CC(N)=O)NC(=O)[C@H](CO)NC(=O)[C@H](C)NC(=O)[C@H](CO)NC(=O)[C@H](CC(C)C)NC(=O)[C@H](C)N)C(=O)O (H-ALSASNSCFI-OH; N-terminus and C-terminus assumed)

biological target: HLA-A03.01 (Homo sapiens, UniProt P04439); assay: Class I MHC peptide binding affinity (displacement of radiolabeled reference peptide); settings: allele A03.01; read-out: Observed Affinity (IC50; (nM))

IC50 [nM] | SMILES
96.9 | CC(C)C[C@H](NC(=O)[C@H](CCC(N)=O)NC(=O)[C@H](CC(C)C)NC(=O)[C@@H](N)Cc1c[nH]cn1)C(=O)N[C@@H](CCCCN)C(=O)N[C@@H](CO)C(=O)N[C@@H](CS)C(=O)N[C@@H](CCCNC(=N)N)C(=O)N[C@@H](CCCNC(=N)N)C(=O)N[C@@H](CCCCN)C(=O)O (H-HLQLKSCRRK-OH; N-terminus and C-terminus assumed)
1.3 | CSCC[C@H](N)C(=O)N[C@@H](CC(C)C)C(=O)N[C@@H](CC(C)C)C(=O)N[C@@H](CCCNC(=N)N)C(=O)N[C@@H](CC(C)C)C(=O)N[C@@H](CC(N)=O)C(=O)N[C@@H](CC(C)C)C(=O)N[C@@H](CCCNC(=N)N)C(=O)N[C@@H](CCCCN)C(=O)O (H-MLLRLNLRK-OH; N-terminus and C-terminus assumed)
1770 | CC(C)C[C@H](NC(=O)[C@@H](N)CC(C)C)C(=O)N[C@H](C(=O)N[C@@H](CO)C(=O)N[C@@H](CO)C(=O)N[C@@H](CO)C(=O)N[C@@H](CCCNC(=N)N)C(=O)N[C@@H](CCC(=O)O)C(=O)N[C@@H](Cc1c[nH]c2ccccc12)C(=O)N[C@@H](CCCCN)C(=O)O)[C@@H](C)O (H-LLTSSSREWK-OH; N-terminus and C-terminus assumed)
79.8 | CSCC[C@H](NC(=O)[C@@H](N)Cc1ccc(O)cc1)C(=O)N[C@@H](Cc1ccccc1)C(=O)N[C@@H](CC(C)C)C(=O)N[C@@H](CCCCN)C(=O)N[C@@H](C)C(=O)N[C@@H](CCC(=O)O)C(=O)N[C@@H](CO)C(=O)N[C@@H](CCCCN)C(=O)O (H-YMFLKAESK-OH; N-terminus and C-terminus assumed)
48.4 | CSCC[C@H](NC(=O)[C@H](CC(C)C)NC(=O)[C@@H](N)CCCCN)C(=O)N[C@@H](CC(C)C)C(=O)N[C@@H](CC(C)C)C(=O)N[C@@H](CCCNC(=N)N)C(=O)N[C@@H](CC(C)C)C(=O)N[C@@H](CC(N)=O)C(=O)N[C@@H](CC(C)C)C(=O)N[C@@H](CCCNC(=N)N)C(=O)O (H-KLMLLRLNLR-OH; N-terminus and C-terminus assumed)
332 | CC(C)[C@H](NC(=O)[C@H](CCCNC(=N)N)NC(=O)[C@@H](N)CCCCN)C(=O)N[C@@H](CC(N)=O)C(=O)N[C@H](C(=O)N[C@@H](C)C(=O)N[C@@H](Cc1c[nH]c2ccccc12)C(=O)N[C@@H](CCCCN)C(=O)N[C@H](C(=O)N[C@@H](CCCCN)C(=O)O)[C@@H](C)O)[C@@H](C)O (H-KRVNTAWKTK-OH; N-terminus and C-terminus assumed)
6 | CSCC[C@H](NC(=O)[C@@H](N)CC(C)C)C(=O)N[C@@H](CC(C)C)C(=O)N[C@@H](CC(C)C)C(=O)N[C@@H](CCCNC(=N)N)C(=O)N[C@@H](CC(C)C)C(=O)N[C@@H](CC(N)=O)C(=O)N[C@@H](CC(C)C)C(=O)N[C@@H](CCCNC(=N)N)C(=O)N[C@@H](CCCCN)C(=O)O (H-LMLLRLNLRK-OH; N-terminus and C-terminus assumed)
2340 | CSCC[C@H](NC(=O)[C@H](C)N)C(=O)N[C@H](C(=O)N[C@H](C(=O)N[C@@H](CO)C(=O)N[C@@H](CO)C(=O)N[C@@H](CO)C(=O)N[C@@H](CCC(N)=O)C(=O)N[C@@H](CCCCN)C(=O)N[C@@H](CC(N)=O)C(=O)O)[C@@H](C)O)[C@@H](C)O (H-AMTTSSSQKN-OH; N-terminus and C-terminus assumed)
9.6 | CC(C)C[C@H](NC(=O)[C@H](C)NC(=O)[C@@H]1CCCN1C(=O)[C@@H](NC(=O)[C@H](CCCCN)NC(=O)[C@H](CCCCN)NC(=O)[C@H](CC(C)C)NC(=O)[C@@H](N)CO)C(C)C)C(=O)N[C@@H](CCCCN)C(=O)N[C@@H](CCCCN)C(=O)O (H-SLKKVPALKK-OH; N-terminus and C-terminus assumed)

The next lines start with the compound.

SMILES | IC50 [nM]
CC[C@H](C)[C@H](NC(=O)[C@H](C)NC(=O)[C@H](CS)NC(=O)[C@@H](NC(=O)[C@@H](N)Cc1ccc(O)cc1)[C@@H](C)O)C(=O)N[C@H](C(=O)N[C@H](C(=O)N[C@H](C(=O)N[C@@H](CCCCN)C(=O)O)C(C)C)[C@@H](C)O)[C@@H](C)O | 122
CC[C@H](C)[C@H](NC(=O)[C@H](C)NC(=O)[C@H](CS)NC(=O)[C@@H](NC(=O)[C@H](Cc1ccc(O)cc1)NC(=O)[C@@H](N)[C@@H](C)O)[C@@H](C)O)C(=O)N[C@H](C(=O)N[C@H](C(=O)N[C@H](C(=O)N[C@@H](CCCCN)C(=O)O)C(C)C)[C@@H](C)O)[C@@H](C)O (H-TYTCAITTVK-OH; N-terminus and C-terminus assumed) | 2360
CC(C)C[C@H](NC(=O)[C@H](Cc1ccccc1)NC(=O)[C@H](CO)NC(=O)[C@@H](N)CC(C)C)C(=O)N[C@@H](CO)C(=O)N[C@@H](CO)C(=O)N[C@@H](Cc1c[nH]c2ccccc12)C(=O)N[C@@H](CC(=O)O)C(=O)N[C@@H](Cc1ccc(O)cc1)C(=O)N[C@@H](CCCNC(=N)N)C(=O)O (H-LSFLSSWDYR-OH; N-terminus and C-terminus assumed) | 101
CC[C@H](C)[C@H](NC(=O)[C@H](C)N)C(=O)N[C@@H](CO)C(=O)N[C@H](C(=O)N[C@@H](CCCNC(=N)N)C(=O)N[C@@H](CC(=O)O)C(=O)N1CCC[C@H]1C(=O)N[C@@H](CC(C)C)C(=O)N[C@@H](CO)C(=O)N[C@@H](CCCCN)C(=O)O)[C@@H](C)O (H-AISTRDPLSK-OH; N-terminus and C-terminus assumed) | 57.5
C[C@@H](O)[C@H](NC(=O)[C@H](CCC(=O)O)NC(=O)[C@H](CCCCN)NC(=O)[C@H](CCCCN)NC(=O)[C@H](CCCCN)NC(=O)[C@H](CO)NC(=O)[C@@H](N)CCCCN)C(=O)N[C@@H](Cc1ccccc1)C(=O)N[C@@H](CCCCN)C(=O)N[C@@H](CCCCN)C(=O)O (H-KSKKKETFKK-OH; N-terminus and C-terminus assumed) | 39.6
C[C@@H](O)[C@H](NC(=O)[C@H](CCC(=O)O)NC(=O)[C@H](CCCCN)NC(=O)[C@H](CCCCN)NC(=O)[C@H](CCCCN)NC(=O)[C@H](CO)NC(=O)[C@@H](N)CCCCN)C(=O)N[C@@H](Cc1ccccc1)C(=O)N[C@@H](CCCCN)C(=O)O (H-KSKKKETFK-OH; N-terminus and C-terminus assumed) | 74.3
CC(C)C[C@H](NC(=O)[C@@H](NC(=O)[C@@H](N)[C@@H](C)O)[C@@H](C)O)C(=O)N[C@@H](CC(N)=O)C(=O)N[C@@H](CO)C(=O)N1CCC[C@H]1C(=O)N1CCC[C@H]1C(=O)N[C@@H](CC(C)C)C(=O)N[C@@H](CCCCN)C(=O)N[C@@H](CCCCN)C(=O)O (H-TTLNSPPLKK-OH; N-terminus and C-terminus assumed) | 14.3
CC(C)C[C@H](N)C(=O)N[C@H](C(=O)N[C@@H](CO)C(=O)N[C@@H](CO)C(=O)N[C@@H](CO)C(=O)N[C@@H](CCCNC(=N)N)C(=O)N[C@@H](CCC(=O)O)C(=O)N[C@@H](Cc1c[nH]c2ccccc12)C(=O)N[C@@H](CCCCN)C(=O)O)[C@@H](C)O (H-LTSSSREWK-OH; N-terminus and C-terminus assumed) | 118
CC(C)C[C@H](NC(=O)[C@H](C)N)C(=O)N[C@@H](Cc1ccccc1)C(=O)N[C@@H](Cc1ccccc1)C(=O)N[C@@H](Cc1ccccc1)C(=O)N[C@@H](Cc1ccccc1)C(=O)N[C@@H](Cc1ccccc1)C(=O)N[C@@H](CCC(=O)O)C(=O)N[C@H](C(=O)N[C@@H](CCCCN)C(=O)O)[C@@H](C)O (H-ALFFFFFETK-OH; N-terminus and C-terminus assumed) | 216
CC(C)C[C@H](NC(=O)[C@@H](NC(=O)[C@@H](NC(=O)[C@@H](N)CS)[C@@H](C)O)[C@@H](C)O)C(=O)N[C@@H](CC(N)=O)C(=O)N[C@@H](CO)C(=O)N1CCC[C@H]1C(=O)N1CCC[C@H]1C(=O)N[C@@H](CC(C)C)C(=O)N[C@@H](CCCCN)C(=O)O (H-CTTLNSPPLK-OH; N-terminus and C-terminus assumed) | 63.6
CC(C)C[C@H](NC(=O)[C@@H](NC(=O)[C@@H](N)[C@@H](C)O)[C@@H](C)O)C(=O)N[C@@H](CC(N)=O)C(=O)N[C@@H](CO)C(=O)N1CCC[C@H]1C(=O)N1CCC[C@H]1C(=O)N[C@@H](CC(C)C)C(=O)N[C@@H](CCCCN)C(=O)O (H-TTLNSPPLK-OH; N-terminus and C-terminus assumed) | 9.8
CC(C)[C@H](NC(=O)[C@@H](N)CCCNC(=N)N)C(=O)N[C@@H](CC(N)=O)C(=O)N[C@H](C(=O)N[C@@H](C)C(=O)N[C@@H](Cc1c[nH]c2ccccc12)C(=O)N[C@@H](CCCCN)C(=O)N[C@H](C(=O)N[C@@H](CCCCN)C(=O)O)[C@@H](C)O)[C@@H](C)O (H-RVNTAWKTK-OH; N-terminus and C-terminus assumed) | 8.6
C[C@@H](O)[C@H](NC(=O)[C@@H](N)CCCCN)C(=O)N[C@@H](Cc1ccccc1)C(=O)N[C@@H](CCC(=O)O)C(=O)N[C@@H](CCCCN)C(=O)N[C@@H](CCCCN)C(=O)NCC(=O)N[C@@H](CCC(=O)O)C(=O)N[C@@H](CCCCN)C(=O)O (H-KTFEKKGEK-OH; N-terminus and C-terminus assumed) | 32.2
CC(C)C[C@H](NC(=O)[C@@H](N)CO)C(=O)N[C@@H](CCC(N)=O)C(=O)N1CCC[C@H]1C(=O)N1CCC[C@H]1C(=O)N1CCC[C@H]1C(=O)N1CCC[C@H]1C(=O)NCC(=O)N[C@@H](Cc1ccccc1)C(=O)N[C@@H](CCCCN)C(=O)O (H-SLQPPPPGFK-OH; N-terminus and C-terminus assumed) | 19
